Assay results from publication PMC8019873, “Histone Deacetylase Inhibitory and Cytotoxic Activities of the Constituents from the Roots of Sophora Pachycarpa” (Iranian Journal of Pharmaceutical Research : IJPR, 2020).

Key:
HCT116 cells = assay: AlamarBlue cytotoxic assay, HCT116; format: cell-based; conditions: HCT-116, human colon cancer HCT116 cells, 48 h, read-out: Cytotoxicity IC50 HCT116
Method: (§1) The cells were seeded in 96-well microplates (1 × 10^4 cells/100 µL in each well) and cultivated for 24 h before the addition of test compounds. Three wells for each concentration were seeded and triplicate plates were used. […] Then, the cells were incubated with the different concentrations of the test compounds, positive control and cell culture medium alone as a negative control for 48 h. After that, 10 μL of alamarBlue® reagent was added to the attached cells and incubated for another four hour. The absorbance was measured at 600 nm using an ELISA microplate reader (Epoch; Bio Tek, Winooski, VT, USA), and the percent viability of the cells was investigated relative to the negative control that was exposed to the culture medium without compounds of the plant. Then, IC50 values were calculated by nonlinear regression analysis using GraphPad Prism (Version 6.0) software.

HeLa cells = assay: AlamarBlue cytotoxic assay, HeLa; format: cell-based; conditions: human cervical HeLa cells, 48 h, read-out: Cytotoxicity IC50 HeLa
Method: as §1

A2780 cells = assay: AlamarBlue cytotoxic assay, A2780; format: cell-based; conditions: Homo sapiens, ovarian cancer A2780 cells, 48 h, read-out: Cytotoxicity IC50 A2780
Method: as §1

HDAC [1] = assay: Whole-cell HDAC inhibition assay in HeLa cells; format: cell-based, human; conditions: 18 h, Boc-Lys(ε-Ac)-AMC substrate
Method: (§2) The cellular HDAC assay was based on an assay published by Marek et al. ([16]). HCT116 and HeLa human cancer cell lines were seeded in 96-well tissue culture microplates (1.5 × 10^4 cells/90 µL culture medium in each well). […] The test compounds were dissolved in dimethyl sulfoxide (the final amount of DMSO/well was maintained at 0.1% V/V) and their concentrations adjusted to 70, 40, 20, 5, 1 μM through dilution with the growth medium. The reaction was started by adding 10 µL of 3 mM Boc-Lys (ε-Ac)-AMC (Bachem, Switzerland) to each well at a final concentration of 0.3 mM. The cells were incubated with the Boc-Lys (ε-Ac)-AMC for 3 h under cell culture conditions. […] The final volume of the assay is 210 µL in all the wells. After that, the solution was transferred into a black 96-well microplate with flat clear bottom and fluorescence intensity was detected at an excitation of 360 nm and emission of 470 nm in a NOVO star microplate reader (BMGLabTech, Offenburg, Germany).

HDAC [2] = assay: Whole-cell HDAC inhibition assay in HCT116 cells; format: cell-based, human; conditions: HCT116, 18 h, Boc-Lys(ε-Ac)-AMC substrate
Method: as §2

A549 cells = assay: AlamarBlue cytotoxic assay, A549; format: cell-based; conditions: Homo sapiens, lung A549 cells, 48 h, read-out: Cytotoxicity IC50 A549
Method: as §1

pan-HDAC = assay: Whole-cell pan-HDAC inhibition, range over HCT116 and HeLa cells; format: cell-based, human; conditions: read-out: pan-HDAC inhibitory activity IC50 range
Method: as §2

[3] = tested on: A2780, A549, HeLa, and HCT116 human cancer cell lines; assay: AlamarBlue cytotoxic assay, range over four cancer cell lines; format: cell-based; conditions: read-out: Cytotoxicity IC50 range against four cancer cell lines
Method: Compounds 1-5 were tested against HeLa, HCT116, A2780and A549 human cancer cell lines using a nonfluorescent substrate, AlamarBlue® (BioSource Invitrogen, Paisely, UK) and subjected to cell viability assay as described with some modification ([15]). The cell lines were cultured in RPMI-1640 medium (Cambrex Bioscience) supplemented with 10% fetal bovine serum (FBS), and 1% penicillin/streptomycin at 37 °C in an atmosphere of 95% […] and 5% CO2. The cells were seeded in 96-well microplates (1 × 10^4 cells/100 µL in each well) and cultivated for 24 h before the addition of test compounds. Three wells for each concentration were seeded and triplicate plates were used. The test compounds were dissolved in dimethyl sulfoxide (the final amount of DMSO per well was maintained at 0.1%V/V) and their concentrations adjusted to 100, 50, 25, 12.5, 6.25 μM through dilution with the growth medium. […] The absorbance was measured at 600 nm using an ELISA microplate reader (Epoch; Bio Tek, Winooski, VT, USA), and the percent viability of the cells was investigated relative to the negative control that was exposed to the culture medium without compounds of the plant. Then, IC50 values were calculated by nonlinear regression analysis using GraphPad Prism (Version 6.0) software.

IC50 (HDAC [1])	IC50 (HDAC [2])	IC50 (pan-HDAC)	SMILES	IC50 (HCT116 cells)	IC50 (HeLa cells)	IC50 (A2780 cells)	IC50 (A549 cells)	IC50 [3]
3.85 µM	0.08 µM	0.08 to 3.85 µM	C=C(C)C(CC=C(C)C)Cc1c2c(c(O)c3c1OC(c1ccc(O)cc1)C3c1cc(O)cc(O)c1)C(=O)CC(c1ccc(O)cc1O)O2 (centres unmarked) [Compound 4, alopecurone J]	18 µM	9.97 µM	21.9 µM	30.9 µM	9.97 to 30.9 µM
24.9 µM	22.2 µM		CC(C)=CCc1c2c(c(O)c3c1O[C@@H](c1ccc(O)cc1)[C@@H]3c1cc(O)cc(O)c1)C(=O)C[C@@H](c1ccc(O)cc1O)O2 [Compound 5, alopecurone P]	48.4 µM	52.6 µM	69 µM	54.9 µM	

Further lines, the compound ahead of its results:

SMILES	IC50 (HDAC [1])	IC50 (HDAC [2])	IC50 (pan-HDAC)	IC50 (HCT116 cells)	IC50 (HeLa cells)	IC50 (A2780 cells)	IC50 (A549 cells)	IC50 [3]
COc1c(C2COc3cc(O)c(CC=C(C)C)c(O)c3C2=O)ccc(O)c1CC=C(C)C (centres unmarked) [Compound 1, isosophoranone]	34.7 µM	26.5 µM		39.3 µM	43.2 µM	49.3 µM	53.5 µM	
C=C(C)[C@H](CC=C(C)C)Cc1c(O)cc(O)c2c1O[C@H](c1ccc(O)cc1O)CC2=O [Compound 2, sophoraflavanone G]	> 70 µM	> 70 µM		54.4 µM	44.2 µM	65.5 µM	72.5 µM	
Oc1ccc(C2Oc3cc(O)cc(O)c3C2O)cc1 (centres unmarked) [Compound 3, 2-(4-hydroxyphenyl)-2,3-dihydrobenzo[b]furan-3,4,6-triol]	> 70 µM	> 70 µM		54 µM	69.4 µM	> 100 µM	76.5 µM	
